Experimental data taken from US9169254B2, “Spiroimidazolone derivative” (Chugai Seiyaku Kabushiki Kaisha, priority 2009, dated 2015).

biological target: T1, human PTH1 receptor (Homo sapiens, UniProt Q03431); assay: In vitro cAMP signal activity in HKRK-B7 cells (LLC-PK1 cells overexpressing the human PTH1 receptor); assay type: cell-based; conditions: HKRK-B7 cells; compound at 1×10^−3 M; cAMP produced as percentage of that produced by hPTH(1-34) at 100 nM
T1 sequence (Q03431 27-593): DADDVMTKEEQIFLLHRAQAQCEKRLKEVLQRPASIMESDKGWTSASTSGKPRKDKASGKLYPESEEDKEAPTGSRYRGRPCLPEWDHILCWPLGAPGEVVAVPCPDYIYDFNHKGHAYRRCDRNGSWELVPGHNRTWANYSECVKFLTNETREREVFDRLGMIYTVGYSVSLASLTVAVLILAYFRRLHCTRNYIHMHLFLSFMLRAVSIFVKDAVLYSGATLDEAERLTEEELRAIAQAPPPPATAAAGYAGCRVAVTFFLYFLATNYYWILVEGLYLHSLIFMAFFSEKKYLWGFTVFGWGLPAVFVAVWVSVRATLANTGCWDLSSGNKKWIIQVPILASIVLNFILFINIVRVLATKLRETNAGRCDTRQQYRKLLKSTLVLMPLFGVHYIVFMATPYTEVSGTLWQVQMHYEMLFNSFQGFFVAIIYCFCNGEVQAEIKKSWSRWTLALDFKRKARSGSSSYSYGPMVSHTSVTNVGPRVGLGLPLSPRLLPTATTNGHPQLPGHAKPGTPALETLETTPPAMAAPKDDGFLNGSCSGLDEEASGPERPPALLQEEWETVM

| SMILES | cAMP production activity (%) |
| --- | --- |
| Cc1cc(C(=O)N(C)C)ccc1CCS(=O)(=O)N1CCC2(CC1)N=C(c1ccc(C(F)(F)F)cc1)NC2=O [Compound 75, 3,N,N-trimethyl-4-{2-[4-oxo-2-(4-trifluoromethyl-phenyl)-1,3,8-triaza-spiro[4.5]dec-1-ene-8-sulfonyl]-ethyl}-benzamide] | 75 |
| Cc1cc(C(=O)N(C)C)ccc1CCS(=O)(=O)N1CCC2(CC1)N=C(C1CCC(C)CC1)NC2=O (centres unmarked) [Compound 76, 3,N,N-trimethyl-4-{2-[2-(4-methyl-cyclohexyl)-4-oxo-1,3,8-triaza-spiro[4.5]dec-1-ene-8-sulfonyl]-ethyl}-benzamide] | 73 |
| Cc1cc(C(=O)N(C)C)ccc1CCS(=O)(=O)N1CCC2(CC1)N=C(C1CCCC1)NC2=O [Compound 77, 4-[2-(2-cyclopentyl-4-oxo-1,3,8-triaza-spiro[4.5]dec-1-ene-8-sulfonyl)-ethyl]-3,N,N-trimethyl-benzamide] | 69 |
| Cc1cc(C(=O)N(C)C)ccc1CCS(=O)(=O)N1CCC2(CC1)N=C(c1c(F)cccc1F)NC2=O [Compound 78, 4-{2-[2-(2,6-difluoro-phenyl)-4-oxo-1,3,8-triaza-spiro[4.5]dec-1-ene-8-sulfonyl]-ethyl}-3,N,N-trimethyl-benzamide] | 31 |
| COc1cccc(OC)c1C1=NC2(CCN(S(=O)(=O)CCc3ccc(C(=O)N(C)C)cc3C)CC2)C(=O)N1 [Compound 79, 4-{2-[2-(2,6-dimethoxy-phenyl)-4-oxo-1,3,8-triaza-spiro[4.5]dec-1-ene-8-sulfonyl]-ethyl}-3,N,N-trimethyl-benzamide] | 8.2 |
| COc1cccc(C2=NC3(CCN(S(=O)(=O)CCc4ccc(C(=O)N(C)C)cc4C)CC3)C(=O)N2)c1 [Compound 80, 4-{2-[2-(3-methoxy-phenyl)-4-oxo-1,3,8-triaza-spiro[4.5]dec-1-ene-8-sulfonyl]-ethyl}-3,N,N-trimethyl-benzamide] | 71 |
| Cc1cc(C(=O)N(C)C)ccc1CCS(=O)(=O)N1CCC2(CC1)N=C(c1cccc(Cl)c1)NC2=O [Compound 81, 4-{2-[2-(3-chloro-phenyl)-4-oxo-1,3,8-triaza-spiro[4.5]dec-1-ene-8-sulfonyl]-ethyl}-3,N,N-trimethyl-benzamide] | 57 |
| Cc1cc(C(=O)N(C)C)ccc1CCS(=O)(=O)N1CCC2(CC1)N=C(c1cc(C(F)(F)F)cc(C(F)(F)F)c1)NC2=O [Compound 82, 4-{2-[2-(3,5-bis-trifluoromethyl-phenyl)-4-oxo-1,3,8-triaza-spiro[4.5]dec-1-ene-8-sulfonyl]-ethyl}-3,N,N-trimethyl-benzamide] | 65 |
| Cc1cc(C(=O)N(C)C)ccc1CCS(=O)(=O)N1CCC2(CC1)N=C(Cc1ccccc1)NC2=O [Compound 83, 4-[2-(2-benzyl-4-oxo-1,3,8-triaza-spiro[4.5]dec-1-ene-8-sulfonyl)-ethyl]-3,N,N-trimethyl-benzamide] | 41 |
| Cc1cccc(C2=NC3(CCN(S(=O)(=O)CCc4ccc(C(=O)N(C)C)cc4C)CC3)C(=O)N2)c1 [Compound 84, 3,N,N-trimethyl-4-[2-(4-oxo-2-m-tolyl-1,3,8-triaza-spiro[4.5]dec-1-ene-8-sulfonyl)-ethyl]-benzamide] | 51 |
| Cc1cc(C(=O)N(C)C)ccc1CCS(=O)(=O)N1CCC2(CC1)N=C(c1cc(C(F)(F)F)ccc1Cl)NC2=O [Compound 85, 4-{2-[2-(2-chloro-5-trifluoromethyl-phenyl)-4-oxo-1,3,8-triaza-spiro[4.5]dec-1-ene-8-sulfonyl]-ethyl}-3,N,N-trimethyl-benzamide] | 76 |
| Cc1cc(C(=O)N(C)C)ccc1CCS(=O)(=O)N1CCC2(CC1)N=C(c1cccc(C(F)(F)F)c1)NC2=O [Compound 86, 3,N,N-trimethyl-4-{2-[4-oxo-2-(3-trifluoromethyl-phenyl)-1,3,8-triaza-spiro[4.5]dec-1-ene-8-sulfonyl]-ethyl}-benzamide] | 66 |
| Cc1cc(C(=O)N(C)C)ccc1CCS(=O)(=O)N1CCC2(CC1)N=C(c1ccc(Cl)cc1)NC2=O [Compound 87, 4-{2-[2-(4-chloro-phenyl)-4-oxo-1,3,8-triaza-spiro[4.5]dec-1-ene-8-sulfonyl]-ethyl}-3,N,N-trimethyl-benzamide] | 6.7 |
| Cc1cc(C(=O)N(C)C)ccc1CCS(=O)(=O)N1CCC2(CC1)N=C(c1ccc(F)c(Cl)c1)NC2=O [Compound 89, 4-{2-[2-(3-chloro-4-fluoro-phenyl)-4-oxo-1,3,8-triaza-spiro[4.5]dec-1-ene-8-sulfonyl]-ethyl}-3,N,N-trimethyl-benzamide] | 96 |
| Cc1cc(C(=O)N(C)C)ccc1CCS(=O)(=O)N1CCC2(CC1)N=C(c1ccc(F)cc1Cl)NC2=O [Compound 90, 4-{2-[2-(2-chloro-4-fluoro-phenyl)-4-oxo-1,3,8-triaza-spiro[4.5]dec-1-ene-8-sulfonyl]-ethyl}-3,N,N-trimethyl-benzamide] | 88 |
| Cc1cc(C(=O)N(C)C)ccc1CCS(=O)(=O)N1CCC2(CC1)N=C(c1cccc(Br)c1)NC2=O [Compound 91, 4-{2-[2-(3-bromo-phenyl)-4-oxo-1,3,8-triaza-spiro[4.5]dec-1-ene-8-sulfonyl]-ethyl}-3,N,N-trimethyl-benzamide] | 73 |
| Cc1cc(C(=O)N(C)C)ccc1CCS(=O)(=O)N1CCC2(CC1)N=C(c1cccc3c1OC(F)(F)O3)NC2=O [Compound 92, 4-{2-[2-(2,2-difluoro-benzo[1,3]dioxol-4-yl)-4-oxo-1,3,8-triaza-spiro[4.5]dec-1-ene-8-sulfonyl]-ethyl}-3,N,N-trimethyl-benzamide] | 97 |
| Cc1cc(C(=O)N(C)C)ccc1CCS(=O)(=O)N1CCC2(CC1)N=C(c1cccc(Cl)c1F)NC2=O [Compound 93, 4-{2-[2-(3-chloro-2-fluoro-phenyl)-4-oxo-1,3,8-triaza-spiro[4.5]dec-1-ene-8-sulfonyl]-ethyl}-3,N,N-trimethyl-benzamide] | 111 |
| Cc1cc(C(=O)N(C)C)ccc1CCS(=O)(=O)N1CCC2(CC1)N=C(c1ccc(OC(F)(F)C(F)F)cc1)NC2=O [Compound 94, 3,N,N-trimethyl-4-(2-{4-oxo-2-[4-(1,1,2,2-tetrafluoro-ethoxy)-phenyl]-1,3,8-triaza-spiro[4.5]dec-1-ene-8-sulfonyl}-ethyl)-benzamide] | 62 |
| Cc1cc(C2=NC3(CCN(S(=O)(=O)CCc4ccc(C(=O)N(C)C)cc4C)CC3)C(=O)N2)ccc1Cl [Compound 95, 4-{2-[2-(4-chloro-3-methyl-phenyl)-4-oxo-1,3,8-triaza-spiro[4.5]dec-1-ene-8-sulfonyl]-ethyl}-3,N,N-trimethyl-benzamide] | 76 |
| Cc1cc(C(=O)N(C)C)ccc1CCS(=O)(=O)N1CCC2(CC1)N=C(c1ccc(C(F)(F)F)c(F)c1)NC2=O [Compound 96, 4-{2-[2-(3-fluoro-4-trifluoromethyl-phenyl)-4-oxo-1,3,8-triaza-spiro[4.5]dec-1-ene-8-sulfonyl]-ethyl}-3,N,N-trimethyl-benzamide] | 70 |
| Cc1cccc(C2=NC3(CCN(S(=O)(=O)CCc4ccc(C(=O)N(C)C)cc4C)CC3)C(=O)N2)n1 [Compound 97, 3,N,N-trimethyl-4-{2-[2-(6-methyl-pyridin-2-yl)-4-oxo-1,3,8-triaza-spiro[4.5]dec-1-ene-8-sulfonyl]-ethyl}-benzamide] | 4.3 |
| Cc1cc(C(=O)N(C)C)ccc1CCS(=O)(=O)N1CCC2(CC1)N=C(c1ccc(Cl)c(Cl)c1)NC2=O [Compound 98, 4-{2-[2-(3,4-dichloro-phenyl)-4-oxo-1,3,8-triaza-spiro[4.5]dec-1-ene-8-sulfonyl]-ethyl}-3,N,N-trimethyl-benzamide] | 75 |
| Cc1cc(C(=O)N(C)C)ccc1CCS(=O)(=O)N1CCC2(CC1)N=C(c1cccc(OC(F)(F)F)c1)NC2=O [Compound 99, 3,N,N-trimethyl-4-{2-[4-oxo-2-(3-trifluoromethoxy-phenyl)-1,3,8-triaza-spiro[4.5]dec-1-ene-8-sulfonyl]-ethyl}-benzamide] | 80 |
| Cc1cc(C(=O)N(C)C)ccc1CCS(=O)(=O)N1CCC2(CC1)N=C(c1ccc(C(F)(F)F)cc1C(F)(F)F)NC2=O [Compound 100, 4-{2-[2-(2,4-bis-trifluoromethyl-phenyl)-4-oxo-1,3,8-triaza-spiro[4.5]dec-1-ene-8-sulfonyl]-ethyl}-3,N,N-trimethyl-benzamide] | 61 |
| Cc1cc(C(=O)N(C)C)ccc1CCS(=O)(=O)N1CCC2(CC1)N=C(CCc1ccccc1)NC2=O [Compound 101, 3,N,N-trimethyl-4-[2-(4-oxo-2-phenethyl-1,3,8-triaza-spiro[4.5]dec-1-ene-8-sulfonyl)-ethyl]-benzamide] | 49 |
